Source: patent publication US8163921B2, “Hepatitis C virus inhibitors” (Bristol-Myers Squibb Company, priority 2008, dated 2012)
Read-outs that look alike come from different tables or passages of the source.

How the values were obtained:
[1] = target: T1, HCV NS3/4A protease complex, BMS strain (UniProt P27958, C1454S/C1711G, species not given); assay: FRET peptide assay to monitor HCV NS3/4A proteolytic activity (BMS strain); format: biochemical, HCV genotype 1a; conditions: read-out: IC50 Range, HCV NS3/4A enzyme assay
T1 construct: other: HCV NS3/4A enzyme assay; class symbols; numeric values; fused on or other part: three-lysine solubilising tail at the C-terminus of NS4A; purified on Ni-NTA from the pET21b vector (His tag implied)
Outline: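 Recombinant HCV NS3/4A protease complex (BMS strain, genotype 1a), 2-3 nM final (300 pM with 50 μg/ml BSA for very potent compounds), incubated with RET S1 EDANS/DABCYL depsipeptide substrate at 2 μM final. Buffer: 50 mM HEPES pH 7.5, 0.15 M NaCl, 0.1% Triton, 15% glycerol, 10 mM βME. Cleavage followed in real time by fluorescence.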

[2] = tested on: HCV replicon in HUH-7 cells; assay: HCV replicon FRET assay; format: cell-based, HCV strain 1b; conditions: Hepatitis C virus
From the text: An HCV replicon whole cell system was established as described by Lohmann V, Korner F, Koch J, Herian U, Theilmann L, Bartenschlager R., Science 285(5424):110-3 (1999). This system enabled us to evaluate the effects of our HCV Protease compounds on HCV RNA replication. Briefly, using the HCV strain 1b sequence described in the Lohmann paper (Assession number:AJ238799), an HCV cDNA was synthesized by Operon Technologies, Inc. (Alameda, Calif.), and the full-length replicon was then assembled in plasmid pGem9zf(+) (Promega, Madison, Wis.) using standard molecular biology techniques. The replicon consists of (i) the HCV 5′ UTR fused to the first 12 amino acids of the capsid protein, (ii) the neomycin phosphotransferase gene (neo), (iii) the IRES from encephalomyocarditis virus (EMCV), and (iv) HCV NS3 to NS5B genes and the HCV 3′ UTR. Plasmid DNAs were linearized with ScaI and RNA transcripts were synthesized in vitro using the T7 MegaScript transcription kit (Ambion, Austin, Tex.) according to manufacturer's directions. In vitro transcripts of the eDNA were transfected into the human hepatoma cell line, HUH-7. […] Resulting cell lines were characterized for positive and negative strand RNA production and protein production over time.
The HCV replicon FRET assay was developed to monitor the inhibitory effects of compounds described in the disclosure on HCV viral replication. HUH-7 cells, constitutively expressing the HCV replicon, were grown in Dulbecco's Modified Eagle Media (DMEM) (Gibco-BRL) containing 10% Fetal calf serum (FCS) (Sigma) and 1 mg/ml G418 (Gibco-BRL). Cells were seeded the night before (1.5×10^4 cells/well) in 96-well tissue-culture sterile plates. Compound and no compound controls were prepared in DMEM containing 4% FCS, 1:100 Penicillin/Streptomysin (Gibco-BRL), 1:100 L-glutamine and 5% DMSO in the dilution plate (0.5% DMSO final concentration in the assay). Compound/DMSO mixes were added to the cells and incubated for 4 days at 37° C. After 4 days, cells were first assessed for cytotoxicity using alamar Blue (Trek Diagnotstic Systems) for a CC50 reading. The toxicity of compound (CC50) was determined by adding 1/10th volume of alamar Blue to the media incubating the cells. After 4 h, the fluorescence signal from each well was read, with an excitation wavelength at 530 nm and an emission wavelength of 580 nm, using the Cytofluor Series 4000 (Perspective Biosystems). Plates were then rinsed thoroughly with Phosphate-Buffered Saline (PBS) (3 times 150 μl).

[3] = Huh-7, HCV replicon cell assay, numeric values, read-out: EC50 Range

Structure (SMILES) | IC50 ([1]; class symbols) | EC50 ([2]; Huh-7, read-out: EC50 Range) | IC50 ([1]; numeric values) | EC50 [2, 3]
C=C[C@@H]1C[C@]1(NC(=O)[C@@H]1C[C@@H](Oc2ncc(OC)c3ccc(Cl)cc23)CN1C(=O)[C@@H](Nc1nc(-c2ccc(C#N)cc2)cs1)C(C)(C)C)C(=O)NS(=O)(=O)C1CC1 [Example 21] | 1 to 20 nM | 1 to 50 nM | – | –
C=C[C@@H]1C[C@]1(NC(=O)[C@@H]1C[C@@H](Oc2ncc(OC)c3ccc(Cl)cc23)CN1C(=O)[C@@H](Nc1nc(-c2cc(C(F)(F)F)cc(C(F)(F)F)c2)cs1)C(C)(C)C)C(=O)NS(=O)(=O)C1CC1 [Example 22] | 1 to 20 nM | 1 to 50 nM | – | –
C=C[C@@H]1C[C@]1(NC(=O)[C@@H]1C[C@@H](Oc2ncc(OC)c3ccc(Cl)cc23)CN1C(=O)[C@@H](Nc1nc(-c2ccc(C)cc2)cs1)C(C)(C)C)C(=O)NS(=O)(=O)C1CC1 [Example 23] | 20 to 200 nM | 1 to 50 nM | – | –
C=C[C@@H]1C[C@]1(NC(=O)[C@@H]1C[C@@H](Oc2ncc(OC)c3ccc(Cl)cc23)CN1C(=O)[C@@H](Nc1nc(-c2ccc(-c3ccccc3)cc2)cs1)C(C)(C)C)C(=O)NS(=O)(=O)C1CC1 [Example 24] | 20 to 200 nM | 1 to 50 nM | – | –
C=C[C@@H]1C[C@]1(NC(=O)[C@@H]1C[C@@H](Oc2ncc(OC)c3ccc(Cl)cc23)CN1C(=O)[C@@H](Nc1nc(-c2cccc(C#N)c2)cs1)C(C)(C)C)C(=O)NS(=O)(=O)C1CC1 [Example 25] | 1 to 20 nM | 1 to 50 nM | – | –
C=C[C@@H]1C[C@]1(NC(=O)[C@@H]1C[C@@H](Oc2ncc(OC)c3ccc(Cl)cc23)CN1C(=O)[C@@H](Nc1nc(-c2cnccn2)cs1)C(C)(C)C)C(=O)NS(=O)(=O)C1CC1 [Example 26] | 1 to 20 nM | 1 to 50 nM | – | –
C=C[C@@H]1C[C@]1(NC(=O)[C@@H]1C[C@@H](Oc2ncc(OC)c3ccc(Cl)cc23)CN1C(=O)[C@@H](Nc1nc(-c2ccc(Cl)c(C)c2)cs1)C(C)(C)C)C(=O)NS(=O)(=O)C1CC1 [Example 27] | – | – | 2 nM | 5.26 nM
C=C[C@@H]1C[C@]1(NC(=O)[C@@H]1C[C@@H](Oc2ncc(OC)c3ccc(Cl)cc23)CN1C(=O)[C@@H](Nc1nc(-c2ccc(OC)cc2OC)cs1)C(C)(C)C)C(=O)NS(=O)(=O)C1CC1 [Example 28] | 1 to 20 nM | 1 to 50 nM | – | –
C=C[C@@H]1C[C@]1(NC(=O)[C@@H]1C[C@@H](Oc2ncc(OC)c3ccc(Cl)cc23)CN1C(=O)[C@@H](Nc1nc(-c2ccc(Cl)c(Cl)c2)cs1)C(C)(C)C)C(=O)NS(=O)(=O)C1CC1 [Example 29] | 1 to 20 nM | 1 to 50 nM | – | –
C=C[C@@H]1C[C@]1(NC(=O)[C@@H]1C[C@@H](Oc2ncc(OC)c3ccc(Cl)cc23)CN1C(=O)[C@@H](Nc1nc(-c2cc(OC)ccc2OC)cs1)C(C)(C)C)C(=O)NS(=O)(=O)C1CC1 [Example 30] | 1 to 20 nM | 1 to 50 nM | – | –
C=C[C@@H]1C[C@]1(NC(=O)[C@@H]1C[C@@H](Oc2ncc(OC)c3ccc(Cl)cc23)CN1C(=O)[C@@H](Nc1nc(-c2ccc(Br)cc2)cs1)C(C)(C)C)C(=O)NS(=O)(=O)C1CC1 [Example 31] | 1 to 20 nM | 1 to 50 nM | – | –
C=C[C@@H]1C[C@]1(NC(=O)[C@@H]1C[C@@H](Oc2ncc(OC)c3ccc(Cl)cc23)CN1C(=O)[C@@H](Nc1nc(-c2ccc(F)cc2)cs1)C(C)(C)C)C(=O)NS(=O)(=O)C1CC1 [Example 32] | 1 to 20 nM | 1 to 50 nM | – | –
C=C[C@@H]1C[C@]1(NC(=O)[C@@H]1C[C@@H](Oc2ncc(OC)c3ccc(Cl)cc23)CN1C(=O)[C@@H](Nc1nc(-c2ccccc2OC)cs1)C(C)(C)C)C(=O)NS(=O)(=O)C1CC1 [Example 33] | – | – | 9 nM | 6.84 nM
C=C[C@@H]1C[C@]1(NC(=O)[C@@H]1C[C@@H](Oc2ncc(OC)c3ccc(Cl)cc23)CN1C(=O)[C@@H](Nc1nc(-c2ccc(C)cc2C)cs1)C(C)(C)C)C(=O)NS(=O)(=O)C1CC1 [Example 34] | 1 to 20 nM | 1 to 50 nM | – | –
C=C[C@@H]1C[C@]1(NC(=O)[C@@H]1C[C@@H](Oc2ncc(OC)c3ccc(Cl)cc23)CN1C(=O)[C@@H](Nc1nc(-c2cccc(OC)c2)cs1)C(C)(C)C)C(=O)NS(=O)(=O)C1CC1 [Example 35] | 1 to 20 nM | 1 to 50 nM | – | –
C=C[C@@H]1C[C@]1(NC(=O)[C@@H]1C[C@@H](Oc2ncc(OC)c3ccc(Cl)cc23)CN1C(=O)[C@@H](Nc1nc(-c2ccc3c(c2)OCCO3)cs1)C(C)(C)C)C(=O)NS(=O)(=O)C1CC1 [Example 36] | 1 to 20 nM | 1 to 50 nM | – | –
C=C[C@@H]1C[C@]1(NC(=O)[C@@H]1C[C@@H](Oc2ncc(OC)c3ccc(Cl)cc23)CN1C(=O)[C@@H](Nc1nc(-c2ccc(Cl)cc2Cl)cs1)C(C)(C)C)C(=O)NS(=O)(=O)C1CC1 [Example 37] | 20 to 200 nM | 1 to 50 nM | – | –
C=C[C@@H]1C[C@]1(NC(=O)[C@@H]1C[C@@H](Oc2ncc(OC)c3ccc(Cl)cc23)CN1C(=O)[C@@H](Nc1nc(-c2ccc(Cl)cc2)cs1)C(C)(C)C)C(=O)NS(=O)(=O)C1CC1 [Example 38] | 1 to 20 nM | 1 to 50 nM | – | –
C=C[C@@H]1C[C@]1(NC(=O)[C@@H]1C[C@@H](Oc2ncc(OC)c3ccc(Cl)cc23)CN1C(=O)[C@@H](Nc1nc(-c2ccccc2F)cs1)C(C)(C)C)C(=O)NS(=O)(=O)C1CC1 [Example 39] | 1 to 20 nM | 1 to 50 nM | – | –
C=C[C@@H]1C[C@]1(NC(=O)[C@@H]1C[C@@H](Oc2ncc(OC)c3ccc(Cl)cc23)CN1C(=O)[C@@H](Nc1nc(-c2ccc3c(c2)OCO3)cs1)C(C)(C)C)C(=O)NS(=O)(=O)C1CC1 [Example 40] | 1 to 20 nM | 1 to 50 nM | – | –
C=C[C@@H]1C[C@]1(NC(=O)[C@@H]1C[C@@H](Oc2ncc(OC)c3ccc(Cl)cc23)CN1C(=O)[C@@H](Nc1nc(-c2ccc(N3CCOCC3)cc2)cs1)C(C)(C)C)C(=O)NS(=O)(=O)C1CC1 [Example 41] | 1 to 20 nM | 1 to 50 nM | – | –
C=C[C@@H]1C[C@]1(NC(=O)[C@@H]1CC(Oc2ncc(OC)c3ccc(Cl)cc23)CN1C(=O)[C@@H](Nc1nc(-c2nc3ccccc3n2C)cs1)C(C)(C)C)C(=O)NS(=O)(=O)C1CC1 (stereo partly shown) [Example 42] | 1 to 20 nM | 1 to 50 nM | – | –
C=C[C@@H]1C[C@]1(NC(=O)[C@@H]1C[C@@H](Oc2ncc(OC)c3ccc(Cl)cc23)CN1C(=O)[C@@H](Nc1nc(-c2cccc(F)c2)cs1)C(C)(C)C)C(=O)NS(=O)(=O)C1CC1 [Example 43] | 1 to 20 nM | 1 to 50 nM | – | –
C=C[C@@H]1C[C@]1(NC(=O)[C@@H]1C[C@@H](Oc2ncc(OC)c3ccc(Cl)cc23)CN1C(=O)[C@@H](Nc1nc(-c2ccc(N(CC)CC)cc2)cs1)C(C)(C)C)C(=O)NS(=O)(=O)C1CC1 [Example 44] | 1 to 20 nM | 1 to 50 nM | – | –
C=C[C@@H]1C[C@]1(NC(=O)[C@@H]1C[C@@H](Oc2ncc(OC)c3ccc(Cl)cc23)CN1C(=O)[C@@H](Nc1nc(-c2ccccc2)c(-c2ccccc2)s1)C(C)(C)C)C(=O)NS(=O)(=O)C1CC1 [Example 45] | 1 to 20 nM | 1 to 50 nM | – | –
C=C[C@@H]1C[C@]1(NC(=O)[C@@H]1C[C@@H](Oc2ncc(OC)c3ccc(Cl)cc23)CN1C(=O)[C@@H](Nc1nc(-c2ccc(C(=O)O)cc2)cs1)C(C)(C)C)C(=O)NS(=O)(=O)C1CC1 [Example 46] | 1 to 20 nM | 1 to 50 nM | – | –
